The source of these data is ChEMBL document CHEMBL1201862, “PubChem BioAssay data set” (2004).

Test systems include U-251; MDA-MB-435; MDA-N; SF-295; TK-10; HOP-62; EKVX; DU-145; SF-268; HCT-15; SN12C; SK-MEL-2; NCI-H226; SK-MEL-28; OVCAR-3; HCT-116; SK-MEL-5; T47D; NCI-H460; MOLT-4.
Holding throughout (assay): growth of human tumour cells (NCI), 48 h

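These data come from cells grown in 96-well plates and exposed to compound for 48 hours at five concentrations. GI50: concentration for 50% inhibition of growth.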 Active and inactive are the calls of the source. Rule as the data show it: active = GI50 up to about 1.1 µM and inactive = higher.

Turning to `O=C(Nc1ccc2nc(-c3ccccc3)cn2c1)Oc1ccccc1`, the GI50 with U-251 was 52.7 µM (inactive); in the assay on MDA-MB-435, 13.9 µM (inactive); in the assay on MDA-N it was 14 µM (inactive); with SF-295, 57.9 µM (inactive); with TK-10 it was 53.7 µM (inactive); in the assay on HOP-62, > 100 µM (inactive). For the same molecule, the GI50 in the assay with EKVX is 80 µM (inactive); in the assay with DU-145, 41.7 µM (inactive); in the assay with SF-268, > 100 µM (inactive); in the assay with HCT-15 it was 45.1 µM; with SN12C it was 66.8 µM (inactive); in the assay on SK-MEL-2 it was 46.7 µM (inactive). Moreover, the GI50 in the assay on NCI-H226 is > 100 µM (inactive); in the assay on SK-MEL-28, > 100 µM (inactive); with OVCAR-3, 38.6 µM (inactive); with HCT-116, 45.9 µM (inactive); with SK-MEL-5 it was 59.7 µM (inactive); with T47D, 19.1 µM (inactive). Further, the figures for the GI50 with NCI-H460 and in the assay with MOLT-4 were 33.1 µM (inactive) and 40.6 µM (inactive), respectively.

On to `C=C1CC(CN2CCC(=O)NC2=O)(c2ccccc2)OC1=O` (stereo not given), for which the GI50 in the assay with U-251 was 17.7 µM (inactive); with MDA-MB-435, 8.89 µM (inactive); with MDA-N it was 10.8 µM (inactive); in the assay with SF-295, 20.7 µM (inactive); with TK-10, 5.94 µM (inactive); with HOP-62, 21.3 µM (inactive). Also, the GI50 in the assay on EKVX was 18.8 µM (inactive); in the assay on DU-145, 15.9 µM (inactive); with SF-268, 23.6 µM (inactive); in the assay on HCT-15, 4.98 µM; with SN12C, 17.6 µM (inactive); in the assay on SK-MEL-2 it was 12.6 µM (inactive). For the same molecule, the GI50 with NCI-H226 is 15.6 µM (inactive); in the assay with SK-MEL-28, 13.4 µM (inactive); in the assay on OVCAR-3 it was 13 µM (inactive); in the assay with HCT-116, 3.35 µM (inactive); with SK-MEL-5, 12.4 µM (inactive); with T47D, 3.13 µM (inactive). In addition, the GI50 in the assay on NCI-H460 was 19.4 µM (inactive); in the assay with MOLT-4 it was 2.25 µM (inactive).

For `O=C(NNc1cn[nH]c(=O)c1Cl)/C(=C/c1ccc2c(c1)OCO2)NC(=O)c1ccccc1`, the GI50 is 53.5 µM (inactive) in the assay on U-251; 79.4 µM (inactive) in the assay on MDA-MB-435; 44.7 µM (inactive) with MDA-N; 71.3 µM (inactive) in the assay with SF-295; 34 µM (inactive) in the assay with TK-10; 57.1 µM (inactive) in the assay on HOP-62. Further, the GI50 in the assay with EKVX was 19.1 µM (inactive); in the assay with DU-145 it was 92 µM (inactive); in the assay with HCT-15 it was 31.7 µM; with SN12C, 50 µM (inactive); in the assay with SK-MEL-2, 51.9 µM (inactive); in the assay on NCI-H226, 21.9 µM (inactive). Also, the GI50 with SK-MEL-28 was 74.3 µM (inactive); with OVCAR-3 it was 71.3 µM (inactive); in the assay with HCT-116, 34.8 µM (inactive); with SK-MEL-5, 40.8 µM (inactive); in the assay with T47D, 73.5 µM (inactive); with NCI-H460, 35.6 µM (inactive). In the assay on MOLT-4, the GI50 was 33.4 µM (inactive).

As for `COc1cc(N(CCC#N)CCC#N)ccc1C(=N/NC(=O)c1cc(Br)ccc1O)/N=N/c1ccc(C)cc1`, the GI50 is 37.4 µM (inactive) with U-251; 44.9 µM (inactive) with MDA-MB-435; 30.9 µM (inactive) in the assay on MDA-N; 31 µM (inactive) in the assay on SF-295; 23.9 µM (inactive) with TK-10; 20.2 µM (inactive) in the assay on HOP-62. Besides, the GI50 with EKVX was 21.7 µM (inactive); in the assay with DU-145, 27.4 µM (inactive); in the assay on SF-268 it was 15.4 µM (inactive); in the assay on HCT-15, 12.2 µM; with SN12C it was 17.3 µM (inactive); with SK-MEL-2 it was 23.7 µM (inactive). Also, the GI50 in the assay on NCI-H226 is 32.4 µM (inactive); in the assay on SK-MEL-28, 25.1 µM (inactive); in the assay with OVCAR-3 it was 22.9 µM (inactive); with HCT-116, 16.1 µM (inactive); in the assay on SK-MEL-5, 17.1 µM (inactive); in the assay with T47D it was 4.36 µM (inactive). The GI50 with NCI-H460 was 15.5 µM (inactive); in the assay on MOLT-4, 14 µM (inactive).

On to `O=c1oc2ccc3ccccc3c2cc1-c1cn2ccccc2n1`, for which the GI50 in the assay on U-251 was 24.2 µM (inactive); in the assay with MDA-MB-435, > 100 µM (inactive); in the assay with MDA-N it was > 100 µM (inactive); in the assay with SF-295, 37.2 µM (inactive); in the assay on TK-10, 67.8 µM (inactive); in the assay with HOP-62, 52.6 µM (inactive). Besides, the GI50 with EKVX is 30.5 µM (inactive); in the assay on DU-145, > 100 µM (inactive); in the assay with SF-268, 80.5 µM (inactive); in the assay with HCT-15 it was above 100 µM; in the assay with SN12C, 48.1 µM (inactive); with SK-MEL-2 it was > 100 µM (inactive). In addition, the GI50 in the assay with NCI-H226 was > 100 µM (inactive); in the assay with SK-MEL-28, > 100 µM (inactive); in the assay with OVCAR-3, > 100 µM (inactive); with HCT-116, 14.9 µM (inactive); in the assay with SK-MEL-5, > 100 µM (inactive); in the assay on T47D it was > 100 µM (inactive). In addition, the GI50 in the assay with NCI-H460 and with MOLT-4 was > 100 µM (inactive) each time.

For `CC1=C(C)C(=O)C(C2=C(C3=CC(=O)C(C)=C(C)C3=O)C(=O)C(C)=C(C)C2=O)=CC1=O`, the GI50 was 3.68 µM (inactive) in the assay with U-251; 3.52 µM (inactive) in the assay with MDA-MB-435; 2.65 µM (inactive) with MDA-N; 17.7 µM (inactive) in the assay on SF-295; 12 µM (inactive) in the assay with TK-10; 18.7 µM (inactive) in the assay on HOP-62. Further, the GI50 in the assay with EKVX was 20.8 µM (inactive); with DU-145, 14 µM (inactive); with SF-268 it was 12.6 µM (inactive); in the assay with HCT-15, 0.294 µM; in the assay on SN12C it was 13.9 µM (inactive); with SK-MEL-2, 14.5 µM (inactive). The GI50 was 11 µM (inactive) in the assay on NCI-H226; 6.87 µM (inactive) in the assay on SK-MEL-28; 5.45 µM (inactive) with HCT-116; 2.15 µM (inactive) in the assay on SK-MEL-5; 2.75 µM (inactive) in the assay on T47D; 14.9 µM (inactive) with NCI-H460. Further, the GI50 in the assay with MOLT-4 is 0.697 µM (active).

Turning to `C[C@]12CC[C@H]3[C@@H](CC=C4C[C@@H](O)CC[C@@]43C)[C@@H]1C/C(=C/c1ccccc1)[C@@H]2O`, the GI50 was > 35.9 µM (inactive) in the assay on U-251; > 46 µM (inactive) in the assay on MDA-MB-435; 20.1 µM (inactive) in the assay with MDA-N; > 36.7 µM (inactive) in the assay on SF-295; 27.8 µM (inactive) in the assay on TK-10; 19.7 µM (inactive) with HOP-62. In addition, the GI50 in the assay with EKVX is 11.8 µM (inactive); in the assay with DU-145, > 42.2 µM (inactive); in the assay on SF-268 it was 29.3 µM (inactive); in the assay with HCT-15 it was 19.7 µM; with SK-MEL-2, 20.9 µM (inactive); in the assay with NCI-H226, 18.5 µM (inactive). The GI50 with SK-MEL-28 was > 44.6 µM (inactive); in the assay on OVCAR-3 it was 16 µM (inactive); with HCT-116 it was 8.53 µM (inactive); in the assay on SK-MEL-5 it was 12.1 µM (inactive); with T47D, > 22 µM (inactive); in the assay on NCI-H460, 20.1 µM (inactive). The GI50 in the assay with MOLT-4 was > 32.7 µM (inactive).

Regarding `O=C(Nc1nnc(-c2ccccc2)o1)C(SC(=S)N1CCCC1)c1ccccc1` (stereo not given), the GI50 in the assay on U-251 is 23.3 µM (inactive); in the assay with MDA-MB-435, 29.7 µM (inactive); with MDA-N, 32.1 µM (inactive); in the assay on SF-295, 22.9 µM (inactive); in the assay on TK-10, 51.9 µM (inactive); in the assay on HOP-62 it was 24.8 µM (inactive). Moreover, the GI50 in the assay with EKVX was 22.3 µM (inactive); in the assay on DU-145, 30.6 µM (inactive); in the assay with HCT-15, 6.9 µM; with SN12C, 16.7 µM (inactive); in the assay with SK-MEL-2, 25.5 µM (inactive); in the assay on NCI-H226 it was 32.1 µM (inactive). Moreover, the GI50 in the assay with SK-MEL-28 is 49 µM (inactive); in the assay on OVCAR-3 it was 23.5 µM (inactive); in the assay with HCT-116 it was 25.1 µM (inactive); in the assay on SK-MEL-5, 17.8 µM (inactive); in the assay on T47D it was 46.8 µM (inactive); in the assay with NCI-H460 it was 16.4 µM (inactive). In addition, in the assay on MOLT-4, the GI50 was 5 µM (inactive).

Consider `NCCc1ccc(S(=O)(=O)O)cc1[N+](=O)[O-]`, for which the GI50 in the assay with U-251, in the assay on MDA-MB-435, with MDA-N, in the assay with SF-295, with TK-10 and in the assay with HOP-62 was > 100 µM (inactive) in each case. Besides, the GI50 in the assay on EKVX is > 100 µM (inactive); in the assay with DU-145, > 100 µM (inactive); in the assay with SF-268, > 100 µM (inactive); in the assay with HCT-15, above 100 µM; in the assay with SN12C, > 100 µM (inactive); in the assay with SK-MEL-2, > 100 µM (inactive). The GI50 in the assay with NCI-H226, with SK-MEL-28, in the assay on OVCAR-3, in the assay with HCT-116, with SK-MEL-5 and in the assay on T47D was > 100 µM (inactive) in each case. Moreover, in the assay with NCI-H460, the GI50 is > 100 µM (inactive).

Consider `COc1cc2cc[n+](C)c(Cc3ccc(Oc4cc(Cc5c6cc(OC)c(OC)cc6cc[n+]5C)ccc4OC)cc3)c2cc1OC`, for which the GI50 is > 100 µM (inactive) in the assay on U-251; > 100 µM (inactive) in the assay with MDA-MB-435; > 100 µM (inactive) in the assay on MDA-N; 59.2 µM (inactive) in the assay with SF-295; 40.3 µM (inactive) in the assay on TK-10; > 100 µM (inactive) with HOP-62. Also, the GI50 is > 100 µM (inactive) in the assay on EKVX; > 100 µM (inactive) in the assay with DU-145; > 100 µM (inactive) with SF-268; above 100 µM in the assay on HCT-15; > 100 µM (inactive) with SN12C; > 100 µM (inactive) in the assay on SK-MEL-2. Further, the GI50 in the assay on NCI-H226, in the assay with SK-MEL-28, in the assay with OVCAR-3, in the assay on HCT-116, in the assay on SK-MEL-5 and in the assay on T47D was > 100 µM (inactive) each time. In addition, the GI50 in the assay with NCI-H460 was > 100 µM (inactive); in the assay on MOLT-4 it was 60.1 µM (inactive).
